Experimental data taken from the supplement of paper PMC10307832.

What was measured:
Experiment in all cases: relative viability (nuclei count vs DMSO), 5 days (fraction); higher = more cells survive
[1] = compound: Cc1ccc2nc(NCCN)c3ncc(C)n3c2c1 + COc1cccc2cc(-c3nc([C@H]4CC[C@H](C(=O)O)CC4)n4ncnc(N)c34)[nH]c12 [OSI-027] (partner 0.5 µM)
In short: (§1)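 Lung cancer cell lines, seeded in 1536-well plates, were treated the following day by pin tool with a single drug or with five library-drug doses (not always all listed) in √10 steps on top of a fixed anchor-drug dose. Cells were fixed and nuclei stained in one step after 5 days, and nuclei were counted. Relative viability is the nuclei count for treated wells divided by that for vehicle wells, reported as medians of duplicate plates.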

[2] = compound: Cc1ccc2nc(NCCN)c3ncc(C)n3c2c1 + O=C(CCCCCCC(=O)Nc1ccccc1)NO [Vorinostat] (partner 1 µM)
In short: as §1

Salubrinal + Navitoclax = compound: O=C(/C=C/c1ccccc1)NC(NC(=S)Nc1cccc2cccnc12)C(Cl)(Cl)Cl [Salubrinal] + CC1(C)CCC(c2ccc(Cl)cc2)=C(CN2CCN(c3ccc(C(=O)NS(=O)(=O)c4ccc(N[C@H](CCN5CCOCC5)CSc5ccccc5)c(S(=O)(=O)C(F)(F)F)c4)cc3)CC2)C1 [Navitoclax] (partner 0.5 µM)
In short: as §1

Salubrinal + Linsitinib = compound: O=C(/C=C/c1ccccc1)NC(NC(=S)Nc1cccc2cccnc12)C(Cl)(Cl)Cl [Salubrinal] + C[C@]1(O)C[C@@H](c2nc(-c3ccc4ccc(-c5ccccc5)nc4c3)c3c(N)nccn32)C1 [Linsitinib] (partner 1 µM)
In short: as §1

Cell Line | relative viability ([1]; first compound 0.04 µM) | relative viability ([1]; first compound 0.1265 µM) | relative viability ([1]; first compound 0.4 µM) | relative viability ([1]; first compound 1.265 µM) | relative viability ([1]; first compound 4 µM) | relative viability ([2]; first compound 0.04 µM) | relative viability ([2]; first compound 0.1265 µM) | relative viability ([2]; first compound 0.4 µM) | relative viability ([2]; first compound 1.265 µM) | relative viability ([2]; first compound 4 µM) | relative viability (Salubrinal + Navitoclax; first compound 0.08 µM) | relative viability (Salubrinal + Navitoclax; first compound 0.253 µM) | relative viability (Salubrinal + Navitoclax; first compound 0.8 µM) | relative viability (Salubrinal + Navitoclax; first compound 2.53 µM) | relative viability (Salubrinal + Navitoclax; first compound 8 µM) | relative viability (Salubrinal + Linsitinib; first compound 0.08 µM) | relative viability (Salubrinal + Linsitinib; first compound 0.253 µM) | relative viability (Salubrinal + Linsitinib; first compound 0.8 µM) | relative viability (Salubrinal + Linsitinib; first compound 2.53 µM) | relative viability (Salubrinal + Linsitinib; first compound 8 µM)
BEN | 0.316 | 0.291 | 0.328 | 0.276 | 0.324 | 0.544 | 0.579 | 0.505 | 0.636 | 0.555 | 0.0699 | 0.0611 | 0.0613 | 0.0706 | 0.0675 | 1.15 | 0.624 | 1.23 | 0.931 | 0.892
CAL-12T | 0.798 | 0.572 | 0.824 | 0.76 | 0.52 | 0.77 | 0.711 | 0.882 | 0.65 | 0.629 | 1.29 | 0.952 | 1.21 | 1.09 | 1.06 | 0.754 | 0.883 | 0.971 | 0.806 | 0.726
COR-L23 | 0.911 | 0.764 | 0.777 | 0.729 | 0.61 | 0.511 | 0.46 | 0.417 | 0.374 | 0.375 | 1.2 | 0.952 | 1.15 | 0.927 | 0.865 | 1.16 | 0.676 | 1.24 | 1 | 0.888
COR-L 105 | 0.79 | 0.753 | 0.666 | 0.691 | 0.723 | 0.658 | 1.13 | 0.845 | 0.911 | 0.768 | 0.715 | 0.718 | 0.76 | 0.765 | 0.723 | 1.04 | 1.03 | 0.737 | 0.953 | 0.776
EKVX | 0.754 | 0.688 | 0.658 | 0.71 | 0.617 | 0.835 | 0.676 | 0.603 | 0.752 | 0.737 | 0.958 | 0.983 | 0.911 | 1.08 | 1.06 | 1.4 | 0.744 | 1.15 | 1.01 | 0.856
EMC-BAC-2 | 0.387 | 0.381 | 0.344 | 0.394 | 0.377 | 0.467 | 0.433 | 0.455 | 0.527 | 0.392 | 1.53 | 1.01 | 1.2 | 1.16 | 1.15 | 0.901 | 0.682 | 0.856 | 0.77 | 0.858
EPLC-272H | 0.366 | 0.296 | 0.32 | 0.346 | 0.317 | 0.564 | 0.406 | 0.279 | 0.374 | 0.415 | 1.23 | 1.02 | 1.4 | 1.19 | 1.04 | 1.19 | 0.832 | 1.37 | 1.27 | 1.05
H3255 | 0.663 | 0.588 | 0.592 | 0.522 | 0.541 | 0.831 | 0.832 | 0.629 | 0.706 | 0.653 | 0.637 | 0.481 | 0.582 | 0.523 | 0.564 | 0.982 | 0.905 | 1.2 | 1.04 | 0.974
HARA | 0.488 | 0.505 | 0.233 | 0.459 | 0.553 | 0.473 | 0.648 | 0.422 | 0.499 | 0.426 | 1.05 | 1.18 | 1.13 | 1.16 | 1.11 | 1.09 | 0.905 | 0.936 | 0.898 | 0.99
HCC-15 | 0.708 | 0.807 | 0.544 | 0.659 | 0.581 | 0.852 | 0.873 | 0.78 | 0.78 | 0.744 | 0.785 | 0.602 | 0.722 | 0.771 | 0.689 | 0.946 | 0.801 | 0.952 | 0.964 | 0.87
HCC-44 | 0.49 | 0.451 | 0.448 | 0.631 | 0.384 | 0.981 | 1.05 | 1.09 | 1.08 | 1.11 | 1.06 | 0.899 | 0.999 | 0.97 | 0.802 | 0.761 | 0.754 | 0.731 | 0.703 | 0.65
HCC-78 | 0.417 | 0.421 | 0.371 | 0.341 | 0.337 | 0.502 | 0.426 | 0.402 | 0.383 | 0.436 | 0.851 | 0.835 | 0.982 | 0.764 | 0.769 | 0.59 | 0.558 | 0.796 | 0.481 | 0.508
HCC-366 | 1.11 | 1.05 | 0.677 | 0.892 | 0.899 | 0.421 | 0.359 | 0.244 | 0.361 | 0.296 | 1.27 | 0.871 | 0.985 | 0.975 | 0.971 | 1.01 | 0.408 | 0.883 | 0.671 | 0.57
HCC-827 | 0.802 | 0.779 | 0.873 | 0.841 | 0.736 | 0.851 | 0.793 | 0.872 | 0.857 | 0.81 | 1.03 | 0.958 | 1.1 | 1.05 | 0.979 | 0.992 | 0.9 | 1 | 0.97 | 0.941
HOP-62 | 0.93 | 0.83 | 0.582 | 0.848 | 0.813 | 0.647 | 0.752 | 0.401 | 0.602 | 0.663 | 1.04 | 0.822 | 1.09 | 1.01 | 0.958 | 1.07 | 0.918 | 1.1 | 0.977 | 0.998
LC-2-ad | 0.866 | 0.825 | 0.789 | 0.889 | 0.784 | 0.724 | 0.689 | 0.652 | 0.69 | 0.689 | 0.5 | 0.35 | 0.666 | 0.54 | 0.413 | 0.932 | 0.812 | 0.912 | 0.817 | 0.844
